The results in this text go back to DBAASP.

In brackets after ≈: the same amount, converted by molar mass. Some results are limits rather than exact numbers.

Common to all, as to assay: ≥ marks a high value that may be exact or a test limit, other limits are often not marked, values filed in µg/mL are converted to µM
The subject of assay [1] is Fusarium solani.
Assay [2] has as its system Trichoderma asperellum.
The test system of assay [3] is Fusarium oxysporum f.sp. vasinfectum.
Assay [4] relates to Rhizoctonia solani.
The subject of assay [5] is Cryptococcus neoformans ATCC 28957.
Assay [6] concerns Escherichia coli ATCC 25922.
The test system of assay [7] is Bacillus cereus ATCC 14579.
Assay [8] deals with Pectobacterium carotovorum.
Assay [9] relates to Ramulariopsis gossypii.
In assay [10] the test system is Xanthomonas campestris pv. citri.
Assay [11] has as its system Bacillus subtilis ATCC 23857.
The test system of assay [12] is Pseudomonas aeruginosa ATCC 27853.
In assay [13] the test system is Fusarium oxysporum.
Assay [14] concerns Staphylococcus aureus ATCC 25923.
Assay [15] has as its system Pseudomonas syringae pv. tabaci.
The subject of assay [16] is Candida albicans ATCC 90028.
The test system of assay [17] is Staphylococcus aureus NCTC 12493.
Assay [18] relates to Enterococcus faecalis NCTC 12697.
Assay [19] has as its system Candida albicans NCYC 1467.
Assay [20] concerns Staphylococcus aureus NCTC 10788.
Assay [21] relates to Escherichia coli NCTC 10418.
Assay [22] concerns Klebsiella pneumoniae ATCC 43816.
Assay [23] relates to Acinetobacter baumannii KCTC 2508.
For assay [24], the system named is Klebsiella pneumoniae KCTC 2208.
The subject of assay [25] is Trichosporon beigelii KCTC 7707.
Assay [26] has as its system Candida albicans KCTC 7270.
For assay [27], the system named is Staphylococcus aureus CCARM 3518.
Assay [28] concerns Bacillus subtilis KCTC 1998.
Assay [29] concerns Staphylococcus aureus CCARM 3090.
The subject of assay [30] is Listeria monocytogenes KCTC 3710.
The test system of assay [31] is Pseudomonas aeruginosa 4891.
Assay [32] has as its system Pseudomonas aeruginosa 4007.
Assay [33] relates to Salmonella typhimurium KCTC 1926.
Assay [34] relates to Escherichia coli CCARM 1229.
Assay [35] concerns Escherichia coli CCARM 1238.

In the case of `CC[C@H](C)[C@H](NC(=O)[C@H](CCCCN)NC(=O)CN)C(=O)N[C@@H](CC(C)C)C(=O)N[C@@H](CCCCN)C(=O)N[C@@H](Cc1ccc(O)cc1)C(=O)N[C@@H](CC(C)C)C(=O)N[C@@H](CC(C)C)C(=O)N[C@@H](Cc1ccc(O)cc1)C(=O)N[C@@H](CC(C)C)C(=O)N[C@@H](CC(C)C)C(=O)N[C@@H](CCCN=C(N)N)C(=O)N[C@@H](CCCCN)C(=O)N[C@@H](Cc1ccc(O)cc1)C(=O)N[C@@H](C)C(=O)N[C@@H](CC(N)=O)C(=O)N[C@@H](CC(C)C)C(=O)N[C@H](C(=O)N[C@H](C(=O)N[C@@H](CCCN=C(N)N)C(N)=O)[C@@H](C)CC)[C@@H](C)CC` [GKILKYLLYLLRKYANLIIR], the MIC in assay [1] is 1 µM (≈ 2.46 µg/mL); in assay [2], 1 µM (≈ 2.46 µg/mL); in assay [3] it was 0.83 µM (≈ 2.05 µg/mL); in assay [4], 1 µM (≈ 2.46 µg/mL); in assay [5] it was 1 µM (≈ 2.46 µg/mL); in assay [6] it was 10.7 µM (≈ 26.3 µg/mL). For the same compound, the minimum inhibitory concentration (MIC) in assay [7] came to 13.3 µM (≈ 32.8 µg/mL); in assay [8], 16 µM (≈ 39.4 µg/mL); in assay [9], 0.83 µM (≈ 2.05 µg/mL); in assay [10] it was 16 µM (≈ 39.4 µg/mL); in [11], 4 µM (≈ 9.86 µg/mL); in [12], 16 µM (≈ 39.4 µg/mL). The MIC in [13] was 2 µM (≈ 4.93 µg/mL); in [14], 8 µM (≈ 19.7 µg/mL); in [15], 4 µM (≈ 9.86 µg/mL); in assay [16], 1 µM (≈ 2.46 µg/mL).

Take `CC[C@H](C)[C@H](NC(=O)[C@@H](NC(=O)[C@H](Cc1c[nH]c2ccccc12)NC(=O)[C@H](CCCCN)NC(=O)[C@H](Cc1ccccc1)NC(=O)[C@@H](NC(=O)[C@H](CCCCN)NC(=O)[C@@H](NC(=O)[C@H](CC(C)C)NC(=O)[C@H](CCCCN)NC(=O)[C@H](CCCN=C(N)N)NC(=O)CNC(=O)[C@H](CC(C)C)NC(=O)[C@H](CCCCN)NC(=O)[C@H](Cc1ccccc1)NC(=O)CN)C(C)C)C(C)C)[C@@H](C)CC)C(N)=O` [GFKLGRKLVKVFKWII]: the MIC turned out to be 0.5 µM (≈ 0.966 µg/mL) in assay [1]; 1 µM (≈ 1.93 µg/mL) in [2]; 0.5 µM (≈ 0.966 µg/mL) in [3]; 1 µM (≈ 1.93 µg/mL) in assay [4]; 1 µM (≈ 1.93 µg/mL) in assay [5]; 0.5 µM (≈ 0.966 µg/mL) in [6]. Besides, the MIC in assay [7] came out at 1 µM (≈ 1.93 µg/mL); in [8], 0.5 µM (≈ 0.966 µg/mL); in assay [9] it was 0.5 µM (≈ 0.966 µg/mL); in assay [10], 1 µM (≈ 1.93 µg/mL); in assay [11], 1 µM (≈ 1.93 µg/mL); in assay [12], 3.33 µM (≈ 6.43 µg/mL). The minimal inhibitory concentration (MIC) was 0.5 µM (≈ 0.966 µg/mL) in [13], 0.83 µM (≈ 1.6 µg/mL) in assay [14], 1 µM (≈ 1.93 µg/mL) in assay [15] and 1 µM (≈ 1.93 µg/mL) in [16].

With `CC(C)C[C@H](NC(=O)[C@H](C)N)C(=O)N[C@@H](Cc1c[nH]c2ccccc12)C(=O)N[C@@H](CCCCN)C(=O)N[C@@H](CO)C(=O)N[C@@H](CC(C)C)C(=O)N[C@@H](CC(C)C)C(=O)N[C@@H](CCCCN)C(=O)N[C@@H](CC(N)=O)C(=O)N[C@H](C(=O)NCC(=O)N[C@@H](CCCCN)C(=O)N[C@@H](C)C(N)=O)C(C)C` [ALWKSLLKNVGKA], the MIC in [17] is at least 128 µM; in assay [18] it was at least 256 µM; in assay [19], at least 32 µM; in [20], at least 64 µM; in assay [21], at least 64 µM; in assay [12], 128 µM (≈ 183 µg/mL). This compound also yielded an MIC in [22] of at least 128 µM.

With `CC[C@H](C)[C@H](N)C(=O)N[C@@H](C)C(=O)N[C@@H](CCCN=C(N)N)C(=O)N[C@@H](CCCN=C(N)N)C(=O)N[C@@H](C)C(=O)N[C@@H](CC(C)C)C(=O)N[C@@H](CCCCN)C(=O)N[C@@H](CCCCN)C(=O)N[C@@H](C)C(=O)N[C@@H](CCCCN)C(=O)N[C@@H](CCCN=C(N)N)C(=O)N[C@@H](C)C(=O)N[C@@H](C)C(=O)N[C@@H](Cc1cnc[nH]1)C(=O)N[C@@H](CCCCN)C(=O)N[C@H](C(=O)N1CCC[C@H]1C(=O)N[C@@H](C)C(=O)N[C@@H](C)C(=O)N[C@@H](CCCCN)C(=O)N[C@@H](CCCCN)C(=O)N[C@@H](Cc1ccccc1)C(=O)N[C@@H](C)C(=O)N[C@@H](CCCN=C(N)N)C(=O)N[C@@H](CCCN=C(N)N)C(N)=O)[C@@H](C)CC` [IARRALKKAKRAAHKIPAAKKFARR], the figures for the minimum inhibitory concentration (MIC) in assay [23], in [24] and in assay [12] were 4 µM (≈ 11.4 µg/mL), 2 µM (≈ 5.71 µg/mL) and 8 µM (≈ 22.9 µg/mL), respectively.

In the case of `CC[C@H](C)[C@H](NC(=O)CNC(=O)[C@H](CCC(N)=O)NC(=O)[C@H](CO)NC(=O)[C@@H](NC(=O)[C@H](CCCCN)NC(=O)[C@H](CCCCN)NC(=O)[C@H](CC(C)C)NC(=O)[C@H](C)NC(=O)[C@H](CC(N)=O)NC(=O)[C@H](CC(C)C)NC(=O)[C@H](C)N)C(C)C)C(=O)N[C@@H](Cc1cnc[nH]1)C(=O)N[C@@H](CCC(=O)O)C(=O)N[C@@H](C)C(=O)N[C@H](C(=O)N[C@@H](CCCCN)C(=O)N[C@@H](CC(C)C)C(=O)N[C@H](C(=O)N[C@@H](C)C(=O)N[C@@H](CC(N)=O)C(=O)N[C@@H](Cc1cnc[nH]1)C(=O)N[C@H](C(=O)N[C@@H](CCC(N)=O)C(N)=O)C(C)C)[C@@H](C)CC)[C@@H](C)CC` [ALNALKKVSQGIHEAIKLIANHVQ], the minimum inhibitory concentration (MIC) was at least 32 µM in assay [25]; at least 32 µM in assay [26]; 8 µM (≈ 20.8 µg/mL) in assay [6]; at least 32 µM in assay [27]; 16 µM (≈ 41.5 µg/mL) in assay [28]; at least 32 µM in assay [29]. The MIC is 16 µM (≈ 41.5 µg/mL) in assay [30]; at least 32 µM in [31]; at least 32 µM in assay [32]; 8 µM (≈ 20.8 µg/mL) in [12]; 8 µM (≈ 20.8 µg/mL) in assay [33]; 16 µM (≈ 41.5 µg/mL) in assay [14]. Further, the MIC in assay [34] and in assay [35] was 16 µM (≈ 41.5 µg/mL) each time.

Regarding `CC[C@H](C)[C@H](N)C(=O)N[C@@H](C)C(=O)N[C@@H](CCCN=C(N)N)C(=O)N[C@@H](CCCN=C(N)N)C(=O)N[C@@H](C)C(=O)N[C@@H](CC(C)C)C(=O)N[C@@H](CCCCN)C(=O)N[C@@H](CCCCN)C(=O)N[C@@H](C)C(=O)N[C@@H](CCCCN)C(=O)N[C@@H](CCCN=C(N)N)C(=O)N[C@@H](C)C(=O)N[C@@H](C)C(=O)N[C@@H](Cc1cnc[nH]1)C(=O)N[C@@H](CCCCN)C(=O)N[C@H](C(=O)N1CCC[C@H]1C(=O)N[C@@H](CCC(N)=O)C(=O)N[C@@H](CS)C(=O)N[C@@H](CCCCN)C(=O)N[C@@H](CCCCN)C(=O)N[C@@H](Cc1ccccc1)C(=O)NCC(=O)N[C@@H](CCCN=C(N)N)C(=O)N[C@@H](CCCN=C(N)N)C(N)=O)[C@@H](C)CC` [IARRALKKAKRAAHKIPQCKKFGRR], the MIC is at least 32 µM in assay [23], 8 µM (≈ 23.5 µg/mL) in assay [24] and 2 µM (≈ 5.86 µg/mL) in [12].

Usually MIC stands for the lowest concentration found to suppress growth.
